“Also recorded” adds a separate entry of the source. Read-outs that look alike come from different tables or passages of the source.
Legend:
[1] = target: A/Mississippi/03/01 H1N1 H274Y mutant NA (Influenza A virus, UniProt Q289M4, H275Y); type: biochemical, influenza virus A/Mississippi/03/01 H1N1
[2] = target: A/Fukui/45/04 H3N2 E119V mutant NA (Influenza A virus, UniProt C0IZY2, E119V); type: biochemical, influenza virus A/Fukui/45/04 H3N2
[3] = target: B/Perth/211/01 D197E mutant NA (Influenza B virus, UniProt Q3S340, D197E); type: biochemical, influenza B virus B/Perth/211/01
[4] = read-out: IC50 at 10 min, 30' Pre
[5] = read-out: IC50 at 10 min, No pre
[6] = read-out: final IC50 after 60 min, 30' pre
[7] = read-out: final IC50 after 60 min, No pre

Compound | binding phenotype (slow or fast binding) [1] | IC50 [1, 4] [nM] | IC50 [1, 5] [nM] | IC50 [1, 6] [nM] | IC50 [1, 7] [nM] | binding phenotype (slow or fast binding) [2] | IC50 [2, 4] [nM] | IC50 [2, 5] [nM] | IC50 [2, 6] [nM] | IC50 [2, 7] [nM] | binding phenotype (slow or fast binding) [3] | also measured
oseltamivir carboxylate | loss of slow binding | 1590 | 1900 | 2440 | 2350 | fast binding; also recorded: loss of slow binding | 122 | 178 | 260 | 208 | – | –
CC(=O)N[C@H]1[C@H]([C@H](O)[C@H](O)CO)OC(C(=O)O)=C[C@@H]1O [DANA, 2-deoxy,2,3-dehydro N-acetyl neuraminic acid] | fast binding | – | – | – | – | fast binding | – | – | – | – | fast binding | susceptibility compared to the wild type virus [3]: Some reduced susceptibility
CC(=O)N[C@H]1[C@H]([C@H](O)[C@H](O)CO)OC(C(=O)O)=C[C@@H]1N=C(N)N [Zanamivir, zanamivir] | no impact on the binding kinetics | – | – | – | – | slow binding phenotype | – | – | – | – | – | –
CCC(CC)[C@H](NC(C)=O)[C@@H]1[C@H](O)[C@@H](C(=O)O)C[C@H]1N=C(N)N [Peramivir, peramivir] | loss of slow binding | 100 | 130 | 153 | 196 | – | 1.4 | 154 | 2.1 | 21.4 | loss of slow binding | 10'/60 (ratio of IC50s), No pre [3]: 2.5; No pre/pre (ratio of 60 min IC50s) [3]: 1.8; IC50 [3, 4]: 3.9 nM; IC50 [3, 5]: 186 nM; IC50 [3, 6]: 41.5 nM; IC50 [3, 7]: 75.2 nM; 10'/60 (ratio of IC50s), No pre [1]: 0.7; 60'/10 (ratio of IC50s), 30' Pre [1]: 1.5; No pre/pre (ratio of 60 min IC50s) [1]: 1.3; 10'/60 (ratio of IC50s), No pre [2]: 7.2; 60'/10 (ratio of IC50s), 30' Pre [2]: 1.5; No pre/pre (ratio of 60 min IC50s) [2]: 10.2

Source: paper PMC3157426 (PLoS ONE, 2011)
